{
  "source": "patent US20140249041A1",
  "about": "“Marker of Prostate Cancer” (Region Midtjylland, priority 2009, published 2014)",
  "key": {"SLC18A2 expression": {"system": "SLC18A2 expression", "experiment": "SLC18A2 expression by real-time PCR in cell lines after epigenetic drug treatment", "assay_type": "cell-based", "procedure": "RNA Preparation, cDNA Synthesis and Quantitative RT-PCR Total RNA from cultured cells and prostate tissue samples was isolated with the RNeasy MinElute Cleanup Kit (Qiagen), as described elsewhere (20). First-strand cDNA synthesis was performed with SuperScript II Reverse Transcriptase (Invitrogen) using oligo(dT) priming. SLC18A2 expression was measured with TaqMan Gene Expression Assay Hs00161858_ml and TaqMan Universal PCR Master Mix on a real-time ABI PRISM 7500 Sequence Detection System (all from Applied Biosystems). For normalization, UBC expression was measured using primers 5′-GATTTGGGTCGCGGTTCTT-3′ (SEQ ID NO: 6) plus 5′-[…]-3′ (SEQ ID NO: 7) and SYBR GREEN PCR Master Mix (Applied Biosystems). All reactions were run in triplicates.\nAll cell lines were grown in RPMI 1640 with L-glutamin (Gibco, Invitrogen) supplemented with 10% fetal bovine serum, 100 U/ml penicillin and 100 μg/ml streptomycin. LNCaP, PC-3, DU145, and 22rv1 cells were obtained from ATCC, BPH-1 cells from DSMZ (Braunschweig, Germany), and PNT1A cells from ECACC. PSK-1 cells were kindly provided by Dr. Adrie van Boekhoven (University of Colorado), VCaP and DuCaP cells by Dr. Kenneth Pienta (University of Michigan), and H69 and H69A cells by Dr. Marie Stampe Ostenfeld (Danish Cancer Society, Copenhagen, Denmark). Cell lines were treated with 1 μM 5-aza-2′-deoxycytidine (Sigma) for 48 h and allowed 5 days recovery in complete medium. Four cell lines were given a combination of 1 μM 5-aza-2′-deoxycytidine (48 h treatment plus 5 days recovery) and 1 mM 4-phenylbutyric acid (Sigma) (continuously for 7 days). Mock treated cells were given buffer only. Growth media were changed daily and cells harvested on day 7. All experiments were performed in duplicate and repeated 2-3 times."}, "[1]": {"system": "SLC18A2 promoter CpG island", "experiment": "Bisulfite sequencing of SLC18A2 CpG island in cell lines before and after epigenetic drug treatment", "assay_type": "cell-based", "conditions": "PSK-1 cells; 1 μM 5-aza-2′-deoxycytidine; from 69% before treatment", "procedure": "For bisulfite sequencing, genomic DNA from prostate cell lines and carefully selected 20-μm sections of fresh-frozen Tissue-tek-embedded BPH, adenocarcinoma and adjacent non-malignant prostate tissue samples was isolated using the PUREGENE DNA Purification Kit (Gentra Systems) with proteinase K treatment (100 units, 30 min, 37 C), as previously described (29). Laser-microdissection was performed as described in (31). DNA was bisulfite converted using the MethylEasy DNA Bisulfite Modification Kit (Human Molecular Signaling, Sydney, Australia). The SLC18A2 promoter CpG island was PCR amplified with TEMPase Hot Start DNA Polymerase (Ampliqon) using primers 5′-[…]-3′ (SEQ ID NO: 8) and 5′-[…]-3′ (SEQ ID NO: 9). Gel purified (illustra GFX PCR DNA and Gel Band Purification Kit; GE Healthcare) amplicons were subcloned into the pCR4-TOPO vector (Invitrogen) and several clones sequenced using M13 forward and reverse primers. Clinicopathological data from patients undergoing methylation analysis is compiled in FIG. 4.\nAll cell lines were grown in RPMI 1640 with L-glutamin (Gibco, Invitrogen) supplemented with 10% fetal bovine serum, 100 U/ml penicillin and 100 μg/ml streptomycin. LNCaP, PC-3, DU145, and 22rv1 cells were obtained from ATCC, BPH-1 cells from DSMZ (Braunschweig, Germany), and PNT1A cells from ECACC. […]"}},
  "data": [
    {"smiles": "Nc1ncn([C@H]2C[C@H](O)[C@@H](CO)O2)c(=O)n1", "note": "[5-aza-2′-deoxycytidine]", "values": [
      {"measurement": "induction of SLC18A2 expression", "setting": "SLC18A2 expression; H69A cells (derived adherent line), 1 μM 5-aza-2′-deoxycytidine", "result": "not observed"},
      {"measurement": "induction of SLC18A2 expression", "setting": "SLC18A2 expression; H69 cells, 1 μM 5-aza-2′-deoxycytidine 48 h plus 5 days recovery", "result": "induced SLC18A2 expression"},
      {"measurement": "induction of SLC18A2 expression", "setting": "SLC18A2 expression; PSK-1 cells, 1 μM 5-aza-2′-deoxycytidine 48 h plus 5 days recovery", "result": "induced SLC18A2 expression"},
      {"measurement": "CpG island methylation after treatment", "setting": "[1]", "result": 11, "unit": "%"}
    ]}
  ]
}
